“Also recorded” adds a separate entry of the source. Counter-ions that a name gives are not always drawn.
Columns and labels:
[1] = tested on: Trychophyton mentagrophytes; assay: Paper disk zone of clearance assay on YEPD agar; type: cell-based; conditions: 4 days 30° C.
Protocol: The antifungal activity of a range of concentrations of terbinafine, encompassing the concentrations range passing through the nails in the Franz cells, was tested. Terbinafine was diluted to the following concentrations in double distilled water: 60, 6, 0.6 and 0.06 μg/ml. 40 μl of each terbinafine solution and double distilled water alone was spotted onto a 10 mm sterile 3 MM paper disk. Each disk was placed on a lawn of Trychophyton mentagrophytes plated on yeast extract peptone dextrose (YEPD) agar plates. T. mentagrophytes was used as a laboratory fungal strain due to its relevance to key pathogenic species in onychomycosis (fungal nail infection). The agar plates were inverted and incubated at 30° C. for 4 days. The plates were photographed and analysed for zones of clearance, which indicate antifungal activity.

[2] = Nanoparticle formation, number and size on Malvern Instruments Nanosight LM10; type: physicochemical; conditions: 0.1 mg/ml terbinafine in 30% ethanol, with or without 0.3 mg/ml PHMB, room temperature at least 24 hours; for particle number: hydrochloride
Protocol: Terbinafine was mixed at 0.1 mg/ml in 30% ethanol and incubated at room temperature for at least 24 hours up to a maximum of 47 days. Another formulation was prepared by mixing terbinafine at 0.1 mg/ml in 30% ethanol and then adding PHMB to 0.3 mg/ml. The formulation was incubated at room temperature for at least 24 hours up to a maximum of 112 days. The number and size of any nanoparticles formed were measured using a Malvern Instruments Nanosight LM10.

particle size range [2]: 50-800 nm
particle number [2]: 0.5×10^8 particles/ml
particle number ([2]; listed as terbinafine alone): Approximately 0.5×10^8 particles/ml
Structure (SMILES): CN(C/C=C/C#CC(C)(C)C)Cc1cccc2ccccc12 [terbinafine, terbinafine hydrochloride]
zone of clearance ([1]; 40 μl of 0.06 μg/ml solution on 10 mm disk): no zone of clearance
zone of clearance ([1]; 40 μl of 0.6 μg/ml solution on 10 mm disk, hydrochloride): clear zones of clearance; also recorded: Progressively smaller zones of clearance
zone of clearance ([1]; 40 μl of 6 μg/ml solution on 10 mm disk, hydrochloride): clear zones of clearance; also recorded: Progressively smaller zones of clearance
zone of clearance ([1]; 40 μl of 60 μg/ml solution on 10 mm disk, hydrochloride): clear zones of clearance; also recorded: largest zone of clearance

Reference: patent US10517835B2, “Composition and methods of treatment” (Blueberry Therapeutics Limited, priority 2015, dated 2019)
